From PubChem BioAssay (NCI)
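Here, GI50 denotes the concentration required for 50% inhibition of growth. TGI denotes the concentration required for complete inhibition of growth.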

Tests used:
Experiment in all cases: NCI tumour cell line growth inhibition, 384-well format
NCI-H226 lung = test system: NCI-H226 lung
SK-MEL-2 melanoma = test system: SK-MEL-2 melanoma
CCRF-CEM leukemia = test system: CCRF-CEM leukemia
786-0 renal = test system: 786-0 renal
HOP-62 NSCLC = test system: HOP-62 NSCLC
SK-MEL-5 melanoma = test system: SK-MEL-5 melanoma
OVCAR-5 ovarian = test system: OVCAR-5 ovarian
HS 578T breast = test system: HS 578T breast
M14 melanoma = test system: M14 melanoma
SNB-19 CNS = test system: SNB-19 CNS
COLO 205 colon = test system: COLO 205 colon
SK-OV-3 ovarian = test system: SK-OV-3 ovarian
NCI-H522 lung = test system: NCI-H522 lung

O=C(O)[C@H](Cc1c[nH]c2ccccc12)N1C(=O)c2ccccc2C1=O
GI50 (NCI-H226 lung): > 100 µM
TGI (NCI-H226 lung): > 100 µM
GI50 (SK-MEL-2 melanoma): > 100 µM
TGI (SK-MEL-2 melanoma): > 100 µM
GI50 (CCRF-CEM leukemia): > 100 µM
TGI (CCRF-CEM leukemia): > 100 µM
GI50 (786-0 renal): > 100 µM
TGI (786-0 renal): > 100 µM
GI50 (HOP-62 NSCLC): > 100 µM
TGI (HOP-62 NSCLC): > 100 µM
GI50 (SK-MEL-5 melanoma): > 100 µM
TGI (SK-MEL-5 melanoma): > 100 µM
GI50 (OVCAR-5 ovarian): > 100 µM
TGI (OVCAR-5 ovarian): > 100 µM
GI50 (HS 578T breast): > 100 µM
TGI (HS 578T breast): > 100 µM
GI50 (M14 melanoma): > 100 µM
TGI (M14 melanoma): > 100 µM
GI50 (SNB-19 CNS): > 100 µM
TGI (SNB-19 CNS): > 100 µM
GI50 (COLO 205 colon): > 100 µM
TGI (COLO 205 colon): > 100 µM
GI50 (SK-OV-3 ovarian): > 100 µM
TGI (SK-OV-3 ovarian): > 100 µM
GI50 (NCI-H522 lung): > 100 µM
TGI (NCI-H522 lung): > 100 µM
